Measured values taken from patent US6107291A, “Azepine or larger medium ring derivatives and methods of use” (Amgen Inc., priority 1998, dated 2000).

What was measured:
[1] = biological target: Human neutrophil collagenase (HNC) (Homo sapiens, UniProt P22894); assay: Human Neutrophil Collagenase Assay (fluorogenic peptide substrate); assay type: biochemical
Procedure: Human neutrophil collagenase (HNC) activity is determined by using fluorogenic peptide substrate Dnp-Pro-b-Cyclohexyl-Ala-Gly-Cys (Me)-His-Ala-Lys-(N-methylanthranilic acid)-NH2. The N-terminus Dnp group and the C-terminus N-methyl-anthranilyl moiety (Nma) are fluorescence self-quenching until the peptide is cleaved at the Gly-Cys(me) bond. The fluorescence from the cleavage products is measured on a Bio-Tek Instrument FL500 fluorescence micro-plate reader (excitation at 360 nm, emission at 460 nm). […] The test compounds (at 100, 33 & 10 mM) are compared for their inhibition of HNC activity on the substrate against the activity of Actinonin and Ki's were determined on selected compounds.

[2] = biological target: Human fibroblast stromelysin (HFS) (Homo sapiens, UniProt P08254); assay: Human Fibroblast Stromelysin Assay (fluorogenic peptide substrate); assay type: biochemical
Human fibroblast stromelysin (HFS), sequence (P08254 100-477): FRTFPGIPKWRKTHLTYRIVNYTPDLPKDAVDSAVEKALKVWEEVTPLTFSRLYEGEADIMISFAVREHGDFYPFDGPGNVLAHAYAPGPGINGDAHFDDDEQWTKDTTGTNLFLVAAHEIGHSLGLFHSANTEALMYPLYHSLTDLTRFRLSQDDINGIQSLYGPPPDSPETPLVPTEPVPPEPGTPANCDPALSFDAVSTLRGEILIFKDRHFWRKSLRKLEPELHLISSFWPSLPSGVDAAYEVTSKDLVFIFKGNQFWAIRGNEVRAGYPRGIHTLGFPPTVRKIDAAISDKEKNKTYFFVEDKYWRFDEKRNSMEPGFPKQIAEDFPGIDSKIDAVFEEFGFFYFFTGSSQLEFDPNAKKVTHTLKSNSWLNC
Procedure: Human fibroblast stromelysin (HFS) activity is determined by using fluorogenic peptide substrate Dnp-Pro-b-Cyclohexyl-Ala-Gly-Cys(Me)-His-Ala-Lys-(N-methylanthranilic acid)-NH2. The N-terminus Dnp group and the C-terminus N-methyl-anthranilyl moiety (Nma) are fluorescence self-quenching until the peptide is cleaved at the Gly-Cys(me) bond. The fluorescence from the cleavage products is measured on a Bio-Tek Instrument FL500 fluorescence micro-plate reader (excitation at 360 nm, emission at 460 nm). […] The test compounds (at 100, 33 & 10 mM) are compared for their inhibition of HFS activity on the substrate against the activity of Actinonin and Ki's were determined on selected compounds.

TNF-α [3] = details: Phase II human trial, rheumatoid arthritis; cited from earlier work
TNF-α [4] = details: soluble receptors for TNF-α; cited from earlier work

Human neutrophil collagenase (HNC), sequence (P22894 101-467): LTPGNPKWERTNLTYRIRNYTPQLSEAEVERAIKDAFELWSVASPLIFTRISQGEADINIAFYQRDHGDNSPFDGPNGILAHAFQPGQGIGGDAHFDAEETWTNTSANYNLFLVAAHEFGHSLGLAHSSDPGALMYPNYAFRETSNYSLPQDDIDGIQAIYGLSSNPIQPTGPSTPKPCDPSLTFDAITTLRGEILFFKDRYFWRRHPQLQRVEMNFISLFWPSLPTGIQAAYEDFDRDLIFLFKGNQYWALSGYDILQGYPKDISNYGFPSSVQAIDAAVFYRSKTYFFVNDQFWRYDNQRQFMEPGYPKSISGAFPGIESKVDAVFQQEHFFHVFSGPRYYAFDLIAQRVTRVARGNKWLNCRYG

With “Dnp-Pro-b-Cyclohexyl-Ala-Gly-Cys (Me)-His-Ala-Lys-(N-methylanthranilic acid)-NH2” the Km [1] was 0.051 µM and the Km [2] was 0.051 µM.

For “cA2: a monoclonal antibody specific to TNF-α, cA2”, the swollen joint count (TNF-α [3]) is listed as “improvement in swollen joint count”.

B1: TNFR-55: soluble receptors for TNF-α (protein, UniProt P19438 30-211, looked up)
extracellular domain: LVPHLGDREKRDSVCPQGKYIHPQNNSICCTKCHKGTYLYNDCPGPGQDTDCRECESGSFTASENHLRHCLSCSKCRKEMGQVEISSCTVDRDTVCGCRKNQYRHYWSENLFQCFNCSLCLNGTVHLSCQEKQNTVCTCHAGFFLRENECVSCSNCKKSLECTKLCLPQIENVKGTEDSGTT
modifications: extracellular domain
notes: soluble receptors for TNF-α
For B1, the “efficacy in animal models of TNF-α mediated disease states” value (TNF-α [4]) is given as “demonstrated efficacy in animal models of TNF-α mediated disease states”.
